# Experimental data from patent US11464784B2, “Inhibition of aminocylase 3 (AA3) in the treatment of cancer” (THE REGENTS OF THE UNIVERSITY OF CALIFORNIA, priority 2017, dated 2022).
# T1: mAA3 (Mus musculus, UniProt Q91XE4)
# T1 sequence (Q91XE4 1-318): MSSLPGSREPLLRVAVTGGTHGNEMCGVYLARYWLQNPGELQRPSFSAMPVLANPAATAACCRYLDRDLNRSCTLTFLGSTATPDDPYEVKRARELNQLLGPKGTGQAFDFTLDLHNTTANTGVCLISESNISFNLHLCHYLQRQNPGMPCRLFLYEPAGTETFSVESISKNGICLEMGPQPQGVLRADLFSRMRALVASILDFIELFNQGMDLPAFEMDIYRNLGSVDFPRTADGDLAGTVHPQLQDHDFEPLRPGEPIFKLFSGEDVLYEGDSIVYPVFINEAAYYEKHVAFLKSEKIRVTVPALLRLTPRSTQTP
# Legend:
# [1] = tested on: normal pancreatic duct epithelial cells; experiment: MTT cell viability, normal pancreatic cells; format: cell-based, human; settings: for toxicity for normal vs cancer cell lines: pancreatic (FIG. 25)
# Excerpt: (§1) Human colon cancer cell lines COLO 205, HCT 116, LS 513 (all ATCC), primary colon epithelial cells (Cell Biologics), pancreatic cancer cell lines PANC-1, MIA PaCa-2, BxPC-3, and normal pancreatic duct epithelial cells (UCLA collection) were used in experiments. COLO 205, LS 513, BxPC-3 cells were cultivated in RPMI 1640 medium with 10% FBS, HCT 116 cells were cultivated in McCoy's 5A medium with 10% FBS, PANC-1 and MIA PaCa-2 cell lines were cultivated in DMEM medium with 10% FBS, and normal colon and pancreatic cells were maintained in Human Epithelial Cell Medium (Cell Biologics).
# (§2) HCC cell lines HepG2, HuH7, primary hepatocytes, colon cell lines COLO 205, HCT 116, LS 513, primary colon epithelial cells, pancreatic cancer cell lines PANC-1, MIA PaCa-2, BxPC-3, and normal pancreatic duct epithelial cells were seeded in 96-well plates at a density 10,000 cells per well in complete medium. Next day medium was changed to medium containing 1% FBS and an AA3 inhibitor (3-100 μM). 24 h later cell viability was determined using the MTT (3-(4,5-dimethylthiazol-2-yl)-2,5-diphenyltetrazolium bromide) cell viability assay. Cells were incubated during 4 h at 37° C. with 150 μl fresh media containing 0.5 mg/ml MTT. Then 50 μl of 20% SDS in 25 mM HCl was added to each well, incubated for 4 h and the optical density at 570 nm was measured on a VMax Kinetic Microplate Reader (Molecular Devices, Sunnyvale, Calif.).
# HuH7 cells [2] = experiment: Levels of FC and NAFC in HuH7 cells (LC/MS); format: cell-based, human; settings: for FC level decreased by / level of NAFC: HuH7, 10-20 μM inhibitor, 24 h, vs untreated; for [FC]/[NAFC] ratio: HuH7 treated cells (untreated ~2.8)
# Method: (§3) HUH7 and HepG2 cells were seeded in 6-well plates at a density 250,000 cells per well in complete medium. Next day the medium was changed to 2 ml DMEM with 1% FBS containing a 10-20 μM AA3 inhibitor. After 24 h incubation, the medium was collected, concentrated 10 times on a vacuum concentrator; 10 μl aliquots were used for quantitation by LC/MS and LC/MS/MS-MRM. The cells were trypsinized, washed in PBS and centrifuged at 2,000 g for 10 min. Then cell pellet was lysed on ice in 50 μl of 20 mM Tris-HCl, pH 7.5, containing 1% dodecyl maltoside (DDM) and 1× protease inhibitor cocktail (Sigma/Aldrich). After centrifugation (14,000 g, 10 min) the supernatants were diluted 4 times with methanol and centrifuged (14,000 g, 10 min), then the supernatants were diluted 10 times with water, and 10 μl aliquots were used for quantitation by LC/MS and LC/MS/MS-MRM as described above expect electrospray ionization was used with an Agilent 6460 triple quadrupole mass spectrometer.
# [3] = tested on: normal primary hepatocytes; experiment: MTT cell viability, normal primary hepatocytes; format: cell-based; settings: inhibitor 10: 0-50 μM range; inhibitor 11: in comparison with HCC cell lines
# Method: as §2
# (§4) To study the effect of AA3 silencing, HepG2 and HUH7 cells seeded in 96-well plates were transfected with 2 pmol AA3 siRNA using the Lipofectamine RNAiMAX reagent as per the manufacturer protocol. Cell viability was measured in the MTT assay 48 h later as described.
# HuH7 cells [4] = experiment: MTT cell viability, HuH7; format: cell-based, human; settings: HuH7, within the micromolar range, 24 h
# Method: as §2, §4
# [5] = tested on: membrane associated Ras in HepG2 cells; experiment: Membrane associated Ras in HepG2 cells (immunoblot); format: cell-based, human; settings: HepG2, 24 h
# Method: Cultured HCC cells and primary hepatocytes were washed with PBS buffer, treated with 0.25% Trypsin-EDTA solution (Corning) and precipitated at 1,000 rpm for 5 min. For protein extraction, HCC cells were lysed on ice by vortexing every 5 min for 30 min in RIPA buffer containing 20 mM Tris-HCl (pH 7.5), 150 mM NaCl, 5 mM EDTA, 1% Triton X-100, 0.5% sodium deoxycholate, 0.1% SDS, and 1× Halt protease inhibitor cocktail (Thermo Scientific, Waltham, Mass.). Prenylated Ras other membrane associated proteins were extracted from HCC cells using a Mem-PER Plus Kit (Thermo Scientific) according to the manufacturer's protocol. […]
# HepG2 cells were seeded in 6-well plates at a density 250,000 cells per well. […] 24 h later cells were collected, washed with PBS and the membrane associated Ras proteins were extracted as described above, resolved on SDS-PAGE, and detected with the anti-Ras antibody (EMD Millipore).
# To study the effect of AA3 suppression on Ras membrane association, HepG2 and HuH7 cells seeded onto 6-well plates at the same density, were transfected with 50 pmol ACY3 (AA3) Silencer Select Pre-designed siRNA (Invitrogen, Grand Island, N.Y.) using the Lipofectamine RNAiMAX reagent (Invitrogen) following the manufacturer protocol. […] After 48 h incubation, membrane associated proteins were extracted and membrane associated Ras was determined by immunoblotting as described above.
# [6] = tested on: colon cancer cell lines COLO 205, HCT 116, LS 513; experiment: MTT cell viability, colon cancer cell lines; format: cell-based, human
# Excerpt: as §1, §2
# [7] = tested on: pancreatic cancer cell lines PANC-1, MIA PaCa-2, BxPC-3; experiment: MTT cell viability, pancreatic cancer cell lines; format: cell-based, human; settings: for efficiency for pancreatic cell lines: lines expressing either wild type (wt) or mutant (mut) KRas
# Excerpt: as §1, §2
# HepG2 cells [8] = experiment: MTT cell viability, HepG2; format: cell-based, human; settings: HepG2, within the micromolar range, 24 h
# Method: as §2, §4
# [9] = tested on: primary colon epithelial cells; experiment: MTT cell viability, normal colon cells; format: cell-based, human; settings: colon (FIG. 24)
# Excerpt: as §1
# as §2, with “Cells were incubated during 4 h at 37° C. with 150 μl fresh media containing 0.5 mg/ml MTT.” left out
# HepG2 cells [10] = experiment: Levels of FC and NAFC in HepG2 cells (LC/MS); format: cell-based, human; settings: for FC level / level of NAFC: HepG2, 10-20 μM inhibitor, 24 h, vs untreated; for [FC]/[NAFC] ratio: HepG2 treated cells (untreated ~8.4)
# Method: as §3
# mAA3 = target: T1, mAA3; settings: substrate of mAA3; cited from earlier work
# [11] = substrate: CC(=O)C/C(C)=C/CC/C(C)=C/CC/C(C)=C/CC/C(C)=C/CN[C@@H](CS)C(=O)O; experiment: Deacetylation of NAFC and NAGGC by human AA3; format: biochemical; settings: other: substrate of human AA3; pH 7.5
# Method: (§5) AA3 activity was measured using a previously described fluorescence assay. Human purified AA3 (1 μg), rat AA1 (1 μg) or immunoaffinity purified AA3 from HepG2 and HuH7 cells were assayed for 30 min at […] in […] of 50 mM sodium phosphate buffer, pH 7.5, containing 1 mM NAFC or NAGGC both from Cayman Chemical (Ann Arbor, Mich.). Then 100 μl of the reaction mixture was added to 1 ml of 50 mM sodium phosphate buffer containing 1 mM fluorescamine, and fluorescence was measured (390 nm excitation, 475 nm emission).
# (§6) To study the deacetylation of NAFC and NAGGC mediated by AA3, 50 μl aliquots from the reaction assays were injected onto Agilent Eclipse Plus C18 reverse phase HPLC column equilibrated with 0.1% formic acid, and eluted with acetonitrile/0.1% formic acid gradient (0-90%, 20 min). The effluent from the column was passed to an Ionspray ion source connected to a triple quadrupole mass-spectrometer (MS) API III+(PerkinElmer, Boston, Mass.). NAFC and NAGGC (Cayman Chemical) were used for MS calibration.
# [12] = substrate: CC(=O)CC(C)=CCCC(C)=CCCC(C)=CCN[C@@H](CS)C(=O)O; experiment: Deacetylation of NAFC and NAGGC by human AA3; format: biochemical; settings: other: substrate of human AA3; pH 7.5
# Method: as §5, §6
# [13] = lines expressing wild type (wt) or mutant (mut) KRas
# [14] = lines expressing mutant (mut) KRas
Molecule,toxicity for pancreatic normal cells [1],toxicity for normal vs cancer cell lines [1],FC level decreased by (HuH7 cells [2]),level of NAFC (HuH7 cells [2]),[FC]/[NAFC] ratio (HuH7 cells [2]),toxicity to normal primary hepatocytes [3],toxicity (cell viability) (HuH7 cells [4]),"level of the membrane associated Ras decreased by, % of control [5] [%]","growth of colon cancer cell lines [6, 13]",toxicity for pancreatic cancer cells [7],efficiency for pancreatic cell lines [7],toxicity (cell viability) (HepG2 cells [8]),toxicity for normal vs cancer cell lines [9],FC level (HepG2 cells [10]),level of NAFC (HepG2 cells [10]),[FC]/[NAFC] ratio (HepG2 cells [10]),"growth of colon cancer cell lines [6, 14]",further results
"O=c1nc(-c2ccccc2)sc2ccccc12 [Inhibitor 10, 2-Phenyl-4H-1,3-benzothiazin-4-one]",toxic,significantly less toxic,approximately 50%,significantly increased,~0.85,not toxic,toxic,~50,suppress growth,toxic,efficient,toxic,significantly less toxic,not significantly changed,significantly increased,~1.6,–,–
"CC(=O)N[C@@H](CSC(Cl)(Cl)C(F)F)C(=O)O [N-Acetyl-S-(2,2-difluoro-1,1-dichloroethyl)-L-cysteine]",–,–,–,–,–,–,–,–,–,–,–,–,–,–,–,–,–,"Vmax, times lower than N-acetyl-S-(2,2-dichloro-1,1-difluoroethyl)-L-cysteine (mAA3): ~30 times; affinity, times higher than N-acetyl-S-(2,2-dichloro-1,1-difluoroethyl)-L-cysteine (mAA3): ~18 times"
"COc1ccc(CSc2nc3cc(S(N)(=O)=O)ccc3n2C)cc1F [Inhibitor 11, 2-[(3-Fluoro-4-methoxybenzyl)sulfanyl]-1-methyl-1H-benzimidazole-5-sulfonamide]",toxic,–,approximately 50%,significantly increased,~0.9,significantly less toxic,toxic,~50,–,toxic,–,toxic,–,not significantly changed,significantly increased,~2.8,suppress growth,–
"Cc1ccc(-n2sc3ccccc3c2=O)cc1 [Inhibitor 21, 2-(4-methylphenyl)-1,2-benzothiazol-3-one]",toxic,significantly less toxic,–,–,–,–,–,–,suppress growth,toxic,efficient,–,significantly less toxic,–,–,–,–,–
"Cc1ccc(N2C(=O)/C(=C/c3cc([N+](=O)[O-])cc(Br)c3O)SC2=S)c(C)c1 [Inhibitor 3, (5Z)-5-(3-Bromo-2-hydroxy-5-nitrobenzylidene)-3-(2,4-dimethylphenyl)-2-thioxo-1,3-thiazolidin-4-one]",toxic,–,–,–,–,–,–,–,–,toxic,–,–,–,–,–,–,suppress growth,–
"human AA3 (Homo sapiens) (protein, 6His (N); made in house; host or cells: E. coli) MCSLPVPREPLRRVAVTGGTHGNEMSGVYLARHWLHAPAELQRASFSAVPVLANPAATSGCRRYVDHDLNRTFTSSFLNSRPTPDDPYEVTRARELNQLLGPKASGQAFDFVLDLHNTTANMGTCLIAKSSHEVFAMHLCRHLQLQYPELSCQVFLYQRSGEESYNLDSVAKNGLGLELGPQPQGVLRADIFSRMRTLVATVLDFIELFNQGTAFPAFEMEAYRPVGVVDFPRTEAGHLAGTVHPQLQDRDFQPLQPGAPIFQMFSGEDLLYEGESTVYPVFINEAAYYEKGVAFVQTEKFTFTVPAMPALTPAPSPAS",–,–,–,–,–,–,–,–,–,–,–,–,–,–,–,–,–,Km [11]: 140 µM; kcat [11]: 7.2 s⁻¹; Km [12]: 25 µM; kcat [12]: 2 s⁻¹
